Measured values from US10716771B2, “Pharmaceutical composition for preventing or treating immune diseases or inflammatory diseases, containing biguanide derivative compound as active ingredient” (THE CATHOLIC UNIVERSITY OF KOREA INDUSTRY-ACADEMIC …, priority 2013, dated 2020).

Experiments:
[1] = tested on: cells isolated from the spleen; assay: Cytotoxicity MTT assay, Example 8-1 (rheumatoid arthritis evaluation); format: cell-based; settings: mouse spleen cells, anti-CD3 0.5 μg/ml or LPS 100 ng/ml, 3 days
Description: In order to evaluate an arthritis therapeutic effect of the biguanide derivative compound of the present invention, in a rheumatoid arthritis animal model, cytotoxicity, generation of autoantibody, expression of inflammatory cytokines and regulatory T cells (Treg), and osteoclast differentiation were measured. Like Examples, metformin was used as a control group. In order to examine cytotoxicity of the biguanide derivative compound of the present invention, an MTT assay was performed. Cells were isolated from the spleen in a normal mouse group and the isolated cells were incubated for 3 days in the concentration of 0.5 μg/ml of anti-CD3 or 100 ng/ml of LPS 100, and metformin, SD-196, SD-216 or SD-217 was treated for each concentration and incubated for 3 days.

IgG = IgG (autoantibody) ELISA, Example 8-2; format: cell-based, mouse; settings: incubated supernatant, compared with metformin
Description: In order to evaluate an arthritis therapeutic effect of the biguanide derivative compound of the present invention, in a rheumatoid arthritis animal model, cytotoxicity, generation of autoantibody, expression of inflammatory cytokines and regulatory T cells (Treg), and osteoclast differentiation were measured. Like Examples, metformin was used as a control group.
In order to examine an effect of suppressing the generation of autoantibody of the biguanide derivative compound of the present invention, the incubated supernatant was collected and the IgG expression degree was examined by using an ELISA. A monoclonal anti-IgG was reacted at 4° C. overnight in a 96-well plate and then a non-specific binding was blocked by a blocking solution. A mouse control serum was continuously diluted by 1/2 to be used as a standard, added with the cell-incubated supernatant, and reacted at room temperature for 2 hrs. Thereafter, HRP-anti-IgG was reacted at room temperature for 2 hrs, washed four times after reaction, added with the diluted HRP-conjugate, and reacted at room temperature for 2 hrs.

TNF-α [2] = assay: TNF-α sandwich ELISA, Example 8-3; format: cell-based, mouse; settings: incubated supernatant
Description: (§1) In order to evaluate an arthritis therapeutic effect of the biguanide derivative compound of the present invention, in a rheumatoid arthritis animal model, cytotoxicity, generation of autoantibody, expression of inflammatory cytokines and regulatory T cells (Treg), and osteoclast differentiation were measured. Like Examples, metformin was used as a control group. In order to evaluate an effect of suppressing the expression of the inflammatory cytokine of the biguanide derivative compound of the present invention, the incubated supernatant was collected and the expression degrees of IL-17 and TNF-α of a mouse were examined by using a sandwich ELISA. […] of a monoclonal anti-IL-17 or anti-TNF-α was reacted in a 96-well plate at 4° C. overnight and then a non-specific binding was blocked by a blocking solution (1% BSA/PBST) after the reaction. An IL-17 or TNF-α recombinant was continuously diluted by 1/2 to be used as a standard, added with the cell-incubated supernatant, and reacted at room temperature for 2 hrs. Thereafter, biotinylated anti-IL-17 or anti-TNF-α was added and reacted at room temperature for 2 hrs, washed four times after the reaction, diluted with a diluted ExtraAvidin-alkaline phosphatase conjugate, and reacted at room temperature for 2 hrs. After the reaction, a PNPP/DEA was added and colored, and absorbance was measured at a wavelength of 405 nm.

Foxp3+ Treg cells = assay: Regulatory T cell (Treg) expression by flow cytometry, Example 8-3; format: cell-based, mouse; settings: anti-CD4, anti-CD25, anti Foxp3
Description: In order to evaluate an arthritis therapeutic effect of the biguanide derivative compound of the present invention, in a rheumatoid arthritis animal model, cytotoxicity, generation of autoantibody, expression of inflammatory cytokines and regulatory T cells (Treg), and osteoclast differentiation were measured. Like Examples, metformin was used as a control group. Further, in order to examine whether the biguanide derivative compound of the present invention activates the expression of regulatory T cells (Treg), the incubated cells were flow-cytometry by using anti-CD4-percp, anti-CD25-APC, and anti Foxp3-Pe fluorescent antibodies (ab), and as a result, it was verified that SD-196, 216 and 217 activated the Foxp3+ Treg cells (see FIG. 10).

[3] = Cytotoxicity (MTT) in rheumatoid arthritis disease model with metabolic syndrome; format: cell-based
Description: In order to examine cytotoxicity of the biguanide derivative compound of the present invention, an MTT assay was performed. Cells were isolated from the spleen in a normal mouse group and the isolated cells were incubated for 3 days in the concentration of 0.5 μg/ml of anti-CD3 or 100 ng/ml of LPS 100, and metformin, SD-196, SD-216 or SD-217 was treated for each concentration and incubated for 3 days.
(§2) Further, the incubated cells were analyzed by flow cytometry using anti-CD4-percp and anti-IL-17-Pe fluorescent antibodies, and as a result, it was verified that SD-196, 216 and 217 suppressed the activity of Th17 and simultaneously activated the expression of the regulatory T cells (Treg) (see FIG. 13).

IL-17 [4] = assay: IL-17 expression in rheumatoid arthritis disease model with metabolic syndrome; format: cell-based
Description: as §1, with “In” for “In order to evaluate an arthritis therapeutic effect of the biguanide derivative compound of the present invention, in a rheumatoid arthritis animal model, cytotoxicity, generation of autoantibody, expression of inflammatory cytokines and regulatory T cells (Treg), and osteoclast differentiation were measured. Like Examples, metformin was used as a control group. In”
as §2

Th17 [5] = assay: Th17 activity by flow cytometry in rheumatoid arthritis disease model with metabolic syndrome; format: cell-based; settings: flow cytometry anti-CD4, anti-IL-17
Description: as §2

[6] = tested on: regulatory T cells (Treg); assay: Regulatory T cell (Treg) expression in rheumatoid arthritis disease model with metabolic syndrome; format: cell-based
Description: Further, in order to examine whether the biguanide derivative compound of the present invention activates the expression of regulatory T cells (Treg), the incubated cells were flow-cytometry by using anti-CD4-percp, anti-CD25-APC, and anti Foxp3-Pe fluorescent antibodies (ab), and as a result, it was verified that SD-196, 216 and 217 activated the Foxp3+ Treg cells (see FIG. 10).
as §2

IL-17 [7] = assay: IL-17 expression in lupus animal model; format: cell-based
Description: as §1, with “In” for “In order to evaluate an arthritis therapeutic effect of the biguanide derivative compound of the present invention, in a rheumatoid arthritis animal model, cytotoxicity, generation of autoantibody, expression of inflammatory cytokines and regulatory T cells (Treg), and osteoclast differentiation were measured. Like Examples, metformin was used as a control group. In”
(§3) In order to evaluate a lupus therapeutic effect of the biguanide derivative compound of the present invention, in a lupus animal model, cytotoxicity, autoantibody generation, generation of inflammatory cytokines, and Th17 regulation were measured by the same method as Example 8.

TNF-α [8] = assay: TNF-α expression in lupus animal model; format: cell-based
Description: as §1, with “In” for “In order to evaluate an arthritis therapeutic effect of the biguanide derivative compound of the present invention, in a rheumatoid arthritis animal model, cytotoxicity, generation of autoantibody, expression of inflammatory cytokines and regulatory T cells (Treg), and osteoclast differentiation were measured. Like Examples, metformin was used as a control group. In”
as §3

Th17 [9] = assay: Th17 activity in lupus animal model; format: cell-based
Description: as §2, §3

Row | SMILES | cytotoxicity (MTT assay) [1] | expression of IgG (IgG) | TNF-α inflammatory cytokine expression (TNF-α [2]) | Foxp3+ Treg cells (Foxp3+ Treg cells) | cytotoxicity [3] | expression of IL-17 (IL-17 [4]) | activity of Th17 (Th17 [5]) | expression of the regulatory T cells (Treg) [6] | expression of IL-17 (IL-17 [7]) | expression of TNF-α (TNF-α [8]) | activity of Th17 (Th17 [9])
1 | CC(C)NC(=N)NC(=N)N [SD-000196, 1-isopropylbiguanide] | no cytotoxicity | significantly suppressed | significantly suppressed | activated | did not have the cytotoxicity | suppressed | suppressed | activated | suppressed | suppressed | suppressed
2 | NC(N)=N/C(N)=N/c1cccc(F)c1 [SD-000216, 1-(3-fluorophenyl)biguanide] | no cytotoxicity | significantly suppressed | significantly suppressed | activated | did not have the cytotoxicity | suppressed | suppressed | activated | suppressed | suppressed | suppressed
3 | N=C(N)NC(=N)Nc1ccc(F)cc1F [SD-000217, 1-(2,4-difluorophenyl)biguanide] | no cytotoxicity | significantly suppressed | significantly suppressed | activated | did not have the cytotoxicity | suppressed | suppressed | activated | suppressed | suppressed | suppressed
